In US5641802A, “Tachyquinine antagonists, their preparation and use in pharmaceutical formulations” (A. Menarini Industrie Farmaceutiche Reiunite S.r.l., priority 1992, dated 1997):

Biological target: T1, NK1 receptor (Homo sapiens, UniProt P25103)
T1 construct: endogenous in cells; host or cells: IM9 cells (intact)
Assay: [3H] SP binding assay in IM9 Cell Line (Substance P antagonism)
Conditions: intact IM9 cells, 60 min, room temperature, compound at 1 μM
Experimental: Assessment of biological activity (NK1 antagonism) of compounds of this invention was performed by means of the following binding and functional assays:
[3H] SP binding assay in IM9 Cell Line
Binding assay was performed with intact cells as described by Payan et al. (J. Immunology 133, 3260 (1984)). Cells were washed with buffer A, (pH 7.5), containing (in mM) Tris-HCl 50, and NaCl 150, plus 0.02% BSA, and then resuspended in assay buffer (buffer A supplemented with protease inhibitors) at a concentration of 1×10^7 cells/ml. Cells were incubated with [3H]SP in a final volume of 0.5 ml for 60 min. at room temperature. Nonspecific binding was determined in the presence of […] nonradioactive SP. The assay mixture was set up in microfuge tubes that had been presoaked in a 0.5% BSA solution for at least 3 hours. Bound and free [^3 H]SP were separated by pelleting the cells in a microfuge (6 min.; 12000 g); the supernatant was then removed by aspiration. For competition binding experiments, IM9 cells were incubated in triplicate with […] [^3 H]SP (the approximate Kd value, as determined in saturation binding experiments); competing ligands were typically added in six concentrations (1:10 dilutions in assay buffer) to give full competition curves.

T1 sequence (P25103 whole entry): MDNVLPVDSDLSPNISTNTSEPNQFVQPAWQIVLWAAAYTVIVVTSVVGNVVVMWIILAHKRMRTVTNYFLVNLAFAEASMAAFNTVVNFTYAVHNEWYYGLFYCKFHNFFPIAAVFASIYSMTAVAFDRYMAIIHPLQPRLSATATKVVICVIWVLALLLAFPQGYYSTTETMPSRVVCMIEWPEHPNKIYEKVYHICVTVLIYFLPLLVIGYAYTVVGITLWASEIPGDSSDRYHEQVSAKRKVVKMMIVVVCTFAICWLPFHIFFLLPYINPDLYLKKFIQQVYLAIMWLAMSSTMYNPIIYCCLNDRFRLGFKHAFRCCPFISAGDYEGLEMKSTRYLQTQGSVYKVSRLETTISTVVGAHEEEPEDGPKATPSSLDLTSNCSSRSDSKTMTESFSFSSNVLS

SMILES | inhibition at 1 µM [%] | % of binding inhibition at 1 μM (1 µM) [%]
CN(Cc1ccccc1)C(=O)[C@H](Cc1ccc2ccccc2c1)NC(=O)C1CCCCC1NC(=O)c1c[nH]c2ccccc12 (stereo partly drawn) [Example 3 fast, N^α [N-(1H-indol-3-yl-carbonyl)-(R,S)cis-2-aminocyclohexyl-carbonyl]-L-3(2-naphthyl)alanyl-N-methyl-N-benzylamide and N^α [N-(1H-indol-3-yl-carbonyl)-(S,R)cis-2-aminocyclohexyl-carbonyl]-L-3(2-naphthyl)alanyl-N-methyl-N-benzylamide] | 100 | 
CN(Cc1ccccc1)C(=O)[C@H](Cc1ccc2ccccc2c1)NC(=O)C1C2CCC(C2)C1NC(=O)c1c[nH]c2ccccc12 (stereo partly drawn) [Example 10 fast, N^α [N-(1H-indol-3-yl-carbonyl)-3S-endoaminobicyclo(2,2,1)heptyl-2R endocarbonyl]-L-3-(2-naphthyl)alanyl-N-methyl-N-benzylamide and N^α [N-(1H-indol-3-yl-carbonyl)-3R-endoaminobicyclo(2,2,1)heptyl-2S-endocarbonyl]-L-3-(2-naphthyl)alanyl-N-methyl-N-benzylamide] | 95 | 
CN(Cc1ccccc1)C(=O)[C@H](Cc1ccccc1)NC(=O)C1CCCCC1NC(=O)c1c[nH]c2ccccc12 (stereo partly drawn) [Example 1 fast, N-methyl-N-benzylamide of N^α -{[N(indol-3-yl-carbonyl)(R,R)-trans-2-amino]cyclohexanoyl}-L-phenylalanine and N-methyl-N-benzylamide of N^α -{[N(indol-3-yl-carbonyl)(S,S)-trans-2-amino]cyclohexanoyl}-L-phenylalamine, reference compound] | 96 | 
CN(Cc1ccccc1)C(=O)[C@H](Cc1ccccc1)NC(=O)C1CCCCC1NC(=O)c1c[nH]c2ccccc12 (stereo partly drawn) [Example 2 fast, N-methyl-N-benzylamide of N^α -{[N(indol-3-yl-carbonyl)(R,S)-cis-2-amino]cyclohexanoyl}-L-phenylalanine and N-methyl-N-benzylamide of N^α -{[N(indol-3-yl-carbonyl)(S,R)-cis-2-amino]cyclohexanoyl}-L-phenylalanine] |  | 100
CN(Cc1ccccc1)C(=O)[C@@H](Cc1ccc2ccccc2c1)NC(=O)C1CCCCC1NC(=O)c1ccccc1 (stereo partly drawn) [Example 17 fast, N^α [N-(benzoyl)-(R,S)cis-2-aminocyclohexyl-carbonyl]-D-3-(2-naphthyl)alanyl-N-methyl-N-benzylamide and N^α [N-(benzoyl)-(S,R)cis-2-aminocyclohexyl-carbonyl]-D-3-(2-naphthyl)alanyl-N-methyl-N-benzylamide] | 98 | 
